Source: BindingDB's records for doi:10.1016/j.ejmech.2016.03.070 (China Medical University, 2016)

How the values were obtained:
[1] = Inhibition of full length human ABCB1 expressed in Flp-In-293 cells assessed as potentiation of paclitaxel-induced cytotoxicity by measuring paclitaxel IC50 at 10 uM after 72 hrs by SRB assay (Rvb = 644.78 +/- 2.6 nM)
[2] = Inhibition of ABCB1 in human KBVIN cells assessed as potentiation of vincristine-induced cytotoxicity by measuring vincristine IC50 at 10 uM after 72 hrs by SRB assay (Rvb = 2867.34 +/- 142.36 nM)
[3] = Inhibition of full length human ABCB1 expressed in Flp-In-293 cells assessed as potentiation of doxorubicin-induced cytotoxicity by measuring doxorubicin IC50 at 8 uM after 72 hrs by SRB assay (Rvb = 914.83 +/- 15.85 nM)
[4] = Inhibition of ABCB1 in human KBVIN cells assessed as potentiation of vincristine-induced cytotoxicity by measuring vincristine IC50 at 8 uM after 72 hrs by SRB assay (Rvb = 2867.34 +/- 142.36 nM)
[5] = Inhibition of full length human ABCB1 expressed in Flp-In-293 cells assessed as potentiation of paclitaxel-induced cytotoxicity by measuring paclitaxel IC50 at 8 uM after 72 hrs by SRB assay (Rvb = 644.78 +/- 2.6 nM)
[6] = Inhibition of full length human ABCB1 expressed in Flp-In-293 cells assessed as potentiation of vincristine-induced cytotoxicity by measuring vincristine IC50 at 10 uM after 72 hrs by SRB assay (Rvb = 823.13 +/- 15.79 nM)
[7] = Inhibition of full length human ABCB1 expressed in Flp-In-293 cells assessed as potentiation of vincristine-induced cytotoxicity by measuring vincristine IC50 at 8 uM after 72 hrs by SRB assay (Rvb = 823.13 +/- 15.79 nM)
[8] = Inhibition of full length human ABCB1 expressed in Flp-In-293 cells assessed as potentiation of doxorubicin-induced cytotoxicity by measuring doxorubicin IC50 at 10 uM after 72 hrs by SRB assay (Rvb = 914.83 +/- 15.85 nM)
[9] = Inhibition of ABCB1 in human KBVIN cells assessed as potentiation of paclitaxel-induced cytotoxicity by measuring paclitaxel IC50 at 8 uM after 72 hrs by SRB assay (Rvb = 1196.09 +/- 44.8 nM)
[10] = Inhibition of ABCB1 in human KBVIN cells assessed as potentiation of paclitaxel-induced cytotoxicity by measuring paclitaxel IC50 at 10 uM after 72 hrs by SRB assay (Rvb = 1196.09 +/- 44.8 nM)

Cc1cccc(-c2coc3c(c(O)cc4occ(-c5cccc(C)c5)c(=O)c43)c2=O)c1
IC50 [1]: 40 nM
IC50 [2]: 96 nM
IC50 [3]: 664 nM
IC50 [4]: 390 nM
IC50 [5]: 60 nM
IC50 [6]: 39 nM
IC50 [7]: 53 nM
IC50 [8]: 586 nM
IC50 [9]: 63 nM
IC50 [10]: 52 nM

COc1ccc(-c2coc3c(c(O)cc4occ(-c5ccc(OC)cc5)c(=O)c43)c2=O)cc1
IC50 [1]: 79 nM
IC50 [3]: 576 nM
IC50 [5]: 303 nM
IC50 [6]: 500 nM
IC50 [7]: 577 nM
IC50 [8]: 544 nM

COc1ccc(-c2coc3c(c(O)cc4occ(-c5ccc(OC)c(OC)c5)c(=O)c43)c2=O)cc1OC
IC50 [1]: 68 nM
IC50 [3]: 597 nM
IC50 [5]: 73 nM
IC50 [6]: 85 nM
IC50 [7]: 203 nM
IC50 [8]: 594 nM
